# Results as given in patent US11084795B2, “CFTR regulators and methods of use thereof” (The Regents of the University of California, priority 2015, dated 2021).
# Like-named read-outs stand apart in the source and are kept apart here.
# Molecular target: human wildtype CFTR (Homo sapiens, UniProt P13569)
# Experiment: Fluorescence plate reader assay of iodide influx in FRT cells co-expressing CFTR and YFP halide sensor
# [1] = read-out: EC50, variation in the 3-aryl ring, plate reader assay
# [2] = read-out: EC50, variation in the quinoxalinone core, plate reader assay
# [3] = read-out: EC50, variation in the N1-substituent, plate reader assay
# human wildtype CFTR, sequence (P13569 whole entry): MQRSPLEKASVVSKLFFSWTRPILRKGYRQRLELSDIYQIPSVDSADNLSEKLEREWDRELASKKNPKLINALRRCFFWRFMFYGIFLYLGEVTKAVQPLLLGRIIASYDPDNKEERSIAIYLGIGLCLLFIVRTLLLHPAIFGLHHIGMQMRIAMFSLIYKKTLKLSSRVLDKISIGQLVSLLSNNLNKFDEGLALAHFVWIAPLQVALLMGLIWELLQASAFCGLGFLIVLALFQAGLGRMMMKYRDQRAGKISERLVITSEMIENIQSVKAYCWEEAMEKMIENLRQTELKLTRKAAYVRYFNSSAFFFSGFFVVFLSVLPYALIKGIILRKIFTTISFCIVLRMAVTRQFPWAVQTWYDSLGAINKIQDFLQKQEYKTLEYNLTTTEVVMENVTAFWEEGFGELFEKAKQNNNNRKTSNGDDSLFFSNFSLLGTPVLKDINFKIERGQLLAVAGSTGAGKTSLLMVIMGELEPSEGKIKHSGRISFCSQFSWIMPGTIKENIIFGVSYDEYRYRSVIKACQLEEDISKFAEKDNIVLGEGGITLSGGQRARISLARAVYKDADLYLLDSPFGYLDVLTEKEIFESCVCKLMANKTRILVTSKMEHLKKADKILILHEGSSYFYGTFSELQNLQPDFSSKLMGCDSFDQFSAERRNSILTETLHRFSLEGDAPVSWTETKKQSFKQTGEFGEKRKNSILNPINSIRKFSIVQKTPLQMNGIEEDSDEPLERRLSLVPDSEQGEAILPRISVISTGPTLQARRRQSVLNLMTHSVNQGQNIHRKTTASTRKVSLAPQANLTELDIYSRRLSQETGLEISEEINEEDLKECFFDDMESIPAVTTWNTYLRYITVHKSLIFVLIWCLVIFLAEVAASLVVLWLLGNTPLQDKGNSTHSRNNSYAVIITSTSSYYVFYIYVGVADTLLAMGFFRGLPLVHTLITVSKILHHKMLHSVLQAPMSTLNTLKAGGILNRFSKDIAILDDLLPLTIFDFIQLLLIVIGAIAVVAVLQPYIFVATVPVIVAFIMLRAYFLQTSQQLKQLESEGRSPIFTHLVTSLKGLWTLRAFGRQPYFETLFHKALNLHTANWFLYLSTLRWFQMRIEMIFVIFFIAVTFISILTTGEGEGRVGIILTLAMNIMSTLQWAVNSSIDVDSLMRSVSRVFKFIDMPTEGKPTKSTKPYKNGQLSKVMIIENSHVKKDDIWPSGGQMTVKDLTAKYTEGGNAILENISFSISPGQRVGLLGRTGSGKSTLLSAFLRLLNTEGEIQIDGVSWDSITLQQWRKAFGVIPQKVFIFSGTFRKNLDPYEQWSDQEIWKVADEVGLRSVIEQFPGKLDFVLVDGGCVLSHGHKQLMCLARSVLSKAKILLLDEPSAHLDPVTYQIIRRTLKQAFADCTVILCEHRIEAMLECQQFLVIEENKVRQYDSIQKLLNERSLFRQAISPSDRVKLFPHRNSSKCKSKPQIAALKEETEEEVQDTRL
Compound,EC50,further results
Cn1c(=O)c(-c2cc([N+](=O)[O-])ccc2N)nc2ccccc21 [CFTRact-J052],–,CFTR activity of commercial analogs relative to CFTRact-J027: greatly reduced activity
O=c1c(-c2cc(Br)ccc2NCc2ccccc2)nc2ccccc2n1Cc1ccccc1 [CFTRact-J056],~15000 nM,CFTR activity of commercial analogs relative to CFTRact-J027: greatly reduced activity
CC(=O)Nc1ccccc1-c1nc2ccccc2n(Cc2ccccc2)c1=O [CFTRact-J057],~15000 nM,CFTR activity of commercial analogs relative to CFTRact-J027: greatly reduced activity
CC(=O)Nc1ccccc1-c1nc2ccccc2n(Cc2cccc(Br)c2)c1=O [CFTRact-J059],~19000 nM,–
CC(=O)Nc1ccc(C)cc1-c1nc2ccccc2n(Cc2ccccc2)c1=O [CFTRact-J060],> 25000 nM,–
CC(=O)Nc1ccccc1-c1nc2ccccc2n(CCc2ccccc2)c1=O [CFTRact-J061],~20000 nM,–
"Nc1ccc([N+](=O)[O-])cc1-c1nc2ccccc2n(Cc2ccccc2Br)c1=O [CFTRact-J104, 3-(2-Amino-5-nitrophenyl)-1-(2-bromobenzyl)quinoxalin-2(1H)-one]",7300 nM,–
"Nc1ccc(F)cc1-c1nc2ccccc2n(Cc2ccccc2)c1=O [CFTRact-J133, 3-(2-Amino-5-fluorophenyl)-1-benzylquinoxalin-2(1H)-one]",790 nM,–
"Nc1ccc(Br)cc1-c1nc2ccccc2n(Cc2ccccc2)c1=O [CFTRact-J134, 3-(2-Amino-5-bromophenyl)-1-benzylquinoxalin-2(1H)-one]",310 nM,–
"Nc1cccc(Br)c1-c1nc2ccccc2n(Cc2ccccc2)c1=O [CFTRact-J142, 3-(2-Amino-6-bromophenyl)-1-benzylquinoxalin-2(1H)-one]",1500 nM,–
"Nc1ccc(I)cc1-c1nc2ccccc2n(Cc2ccccc2[N+](=O)[O-])c1=O [CFTRact-J143, 3-(2-Amino-5-iodophenyl)-1-(2-nitrobenzyl)quinoxalin-2(1H)-one]",> 25000 nM,–
"N#Cc1ccccc1Cn1c(=O)c(-c2cc(I)ccc2N)nc2ccccc21 [CFTRact-J144, 3-(2-Amino-5-iodophenyl)-1-(2-cyanobenzyl)quinoxalin-2(1H)-one]",> 25000 nM,–
"O=C(O)c1ccc([N+](=O)[O-])c(-c2nc3ccccc3n(Cc3ccccc3)c2=O)c1 [Compound 1b, 3-(4-Benzyl-3-oxo-3,4-dihydroquinoxalin-2-yl)-4-nitrobenzoic acid]",> 10000 nM,–
"O=c1c(-c2ccccc2[N+](=O)[O-])nc2ccccc2n1Cc1ccccc1 [Compound 1d, 1-Benzyl-3-(2-nitrophenyl)quinoxalin-2(1H)-one]",–,EC50 [1]: 1000 nM
"O=c1c(-c2ccc([N+](=O)[O-])cc2)nc2ccccc2n1Cc1ccccc1 [Compound 1e, 1-Benzyl-3-(4-nitrophenyl)quinoxalin-2(1H)-one]",–,EC50 [1]: 1000 nM
"O=c1c(-c2ccc(C(F)(F)F)cc2)nc2ccccc2n1Cc1ccccc1 [Compound 1f, 1-Benzyl-3-(4-(trifluoromethyl)phenyl)quinoxalin-2(1H)-one]",–,EC50 [1]: 1000 nM
"O=c1c(-c2cccc(Br)c2)nc2ccccc2n1Cc1ccccc1 [Compound 1g, 1-Benzyl-3-(3-bromophenyl)quinoxalin-2(1H)-one]",–,EC50 [1]: 330 nM
"O=c1c(-c2ccccc2)nc2ccccc2n1Cc1ccccc1 [Compound 1h, 1-Benzyl-3-phenylquinoxalin-2(1H)-one]",–,EC50 [1]: 5000 nM

Compound,EC50,further results
"O=c1c(-c2ccc(F)c([N+](=O)[O-])c2)nc2ccccc2n1Cc1ccccc1 [Compound 1i, 1-Benzyl-3-(4-fluoro-3-nitrophenyl)quinoxalin-2(1H)-one]",–,EC50 [1]: 690 nM
"COC(=O)c1ccc(N)c(-c2nc3ccccc3n(Cc3ccccc3)c2=O)c1 [Compound 1j, Methyl 4-amino-3-(4-benzyl-3-oxo-3,4-dihydroquinoxalin-2-yl)benzoate]",1000 nM,EC50 [1]: 550 nM
"Nc1ccc(C(=O)O)cc1-c1nc2ccccc2n(Cc2ccccc2)c1=O [Compound 1k, 4-Amino-3-(4-benzyl-3-oxo-3,4-dihydroquinoxalin-2-yl)benzoic acid]",> 10000 nM,–
"O=c1c(-c2ccc3nonc3c2)nc2ccccc2n1Cc1ccccc1 [Compound 1m, 3-(Benzo[c][1,2,5]oxadiazol-5-yl)-1-benzylquinoxalin-2(1H)-one]",–,EC50 [1]: 18 nM
"O=c1c(-c2cccc([N+](=O)[O-])c2)nc2ccc(Cl)cc2n1Cc1ccccc1 [Compound 2a, 1-Benzyl-7-chloro-3-(3-nitrophenyl)quinoxalin-2(1H)-one]",–,EC50 [2]: 760 nM
"O=c1c(-c2cccc([N+](=O)[O-])c2)nc2cc(Cl)ccc2n1Cc1ccccc1 [Compound 2b, 1-Benzyl-6-chloro-3-(3-nitrophenyl)quinoxalin-2(1H)-one]",–,EC50 [2]: 70 nM
"O=c1c(-c2cccc([N+](=O)[O-])c2)nc2c(Cl)cccc2n1Cc1ccccc1 [Compound 2c, 1-Benzyl-5-chloro-3-(3-nitrophenyl)quinoxalin-2(1H)-one]",–,EC50 [2]: 110 nM
"O=c1c(-c2cccc([N+](=O)[O-])c2)nc2ccc(Br)cc2n1Cc1ccccc1 [Compound 2e, 1-Benzyl-7-bromo-3-(3-nitrophenyl)quinoxalin-2(1H)-one]",–,"EC50, variation in the quinoxalinone core (plate reader assay): EC50 = Inactive"
"O=c1c(-c2cccc([N+](=O)[O-])c2)nc2cc(Br)ccc2n1Cc1ccccc1 [Compound 2f, 1-Benzyl-6-bromo-3-(3-nitrophenyl)quinoxalin-2(1H)-one]",–,EC50 [2]: 63 nM
"O=c1[nH]c2ccccc2nc1-c1cccc([N+](=O)[O-])c1 [Compound 3a, 3-(3-Nitrophenyl)quinoxalin-2(1H)-one]",> 10000 nM,–
"CCn1c(=O)c(-c2cccc([N+](=O)[O-])c2)nc2ccccc21 [Compound 3c, 1-Ethyl-3-(3-nitrophenyl)quinoxalin-2(1H)-one]",–,EC50 [3]: 65 nM
"CCCn1c(=O)c(-c2cccc([N+](=O)[O-])c2)nc2ccccc21 [Compound 3d, 1-Propyl-3-(3-nitrophenyl)quinoxalin-2(1H)-one]",–,EC50 [3]: 177 nM
"C=CCn1c(=O)c(-c2cccc([N+](=O)[O-])c2)nc2ccccc21 [Compound 3e, 1-Allyl-3-(3-nitrophenyl)quinoxalin-2(1H)-one]",–,EC50 [3]: 55 nM
"O=c1c(-c2cccc([N+](=O)[O-])c2)nc2ccccc2n1Cc1cccc2ccccc12 [Compound 3f, 1-(Naphthalen-1-ylmethyl)-3-(3-nitrophenyl)quinoxalin-2(1H)-one]",–,"EC50, variation in the N1-substituent (plate reader assay): EC50 = Inactive"
"O=c1c(-c2cccc([N+](=O)[O-])c2)nc2ccccc2n1Cc1ccc2ccccc2c1 [Compound 3g, 1-(Naphthalen-2-ylmethyl)-3-(3-nitrophenyl)quinoxalin-2(1H)-one]",–,EC50 [3]: 4300 nM
"O=c1c(-c2cccc([N+](=O)[O-])c2)nc2ccccc2n1Cc1ccccn1 [Compound 3h, 3-(3-Nitrophenyl)-1-(pyridin-2-ylmethyl)quinoxalin-2(1H)-one]",–,EC50 [3]: 52 nM
"O=c1c(-c2cccc([N+](=O)[O-])c2)nc2ccccc2n1Cc1ccco1 [Compound 3i, 1-(Furan-2-ylmethyl)-3-(3-nitrophenyl)quinoxalin-2(1H)-one]",–,EC50 [3]: 20 nM
"CC(=O)Nc1ccc([N+](=O)[O-])cc1-c1nc2cccc3c2n(c1=O)CCO3 [Compound 16, N-(4-nitro-2-(5-oxo-2,3-dihydro-5H-[1,4]oxazino[4,3,2-de]quinoxalin-6-yl)phenyl) acetamide]",–,"EC50 (read-out: EC50, constrained ring analogs, plate reader assay): 820 nM"

# Second part, led by results:
EC50,Compound,further results
> 25000 nM,"Nc1ccc([N+](=O)[O-])cc1-c1nc2ccccc2n(Cc2ccc(Br)cc2)c1=O [CFTRact-J102, 3-(2-Amino-5-nitrophenyl)-1-(4-bromobenzyl)quinoxalin-2(1H)-one]",–
1200 nM,"Nc1ccc([N+](=O)[O-])cc1-c1nc2ccccc2n(Cc2cccc(Br)c2)c1=O [CFTRact-J103, 3-(2-Amino-5-nitrophenyl)-1-(3-bromobenzyl)quinoxalin-2(1H)-one]",–
530 nM,"Nc1ccc([N+](=O)[O-])cc1-c1nc2cc(F)ccc2n(Cc2ccccc2)c1=O [CFTRact-J105, 3-(2-Amino-5-nitrophenyl)-1-benzyl-6-fluoroquinoxalin-2(1H)-one]",–
1500 nM,"CC(=O)Nc1ccc([N+](=O)[O-])cc1-c1nc2ccccc2n(Cc2ccccc2)c1=O [CFTRact-J109, N-(2-(4-Benzyl-3-oxo-3,4-dihydroquinoxalin-2-yl)-4-nitrophenyl)-acetamide]",–
260 nM,"Nc1ccc([N+](=O)[O-])cc1-c1nc2cc(Br)ccc2n(Cc2ccccc2)c1=O [CFTRact-J136, 3-(2-Amino-5-nitrophenyl)-1-benzyl-6-bromoquinoxalin-2(1H)-one]",–
650 nM,"Cc1ccc2c(c1)nc(-c1c(N)cccc1Br)c(=O)n2Cc1ccccc1 [CFTRact-J139, 3-(2-Amino-6-bromophenyl)-1-benzyl-6-methylquinoxalin-2(1H)-one]",–
700 nM,"Cc1ccc2c(c1)nc(-c1cc(F)ccc1N)c(=O)n2Cc1ccccc1 [CFTRact-J140, 3-(2-Amino-5-fluorophenyl)-1-benzyl-6-methylquinoxalin-2(1H)-one]",–
470 nM,"Cc1ccc2c(c1)nc(-c1cc(I)ccc1N)c(=O)n2Cc1ccccc1 [CFTRact-J141, 3-(2-Amino-5-iodophenyl)-1-benzyl-6-methylquinoxalin-2(1H)-one]",–
> 10000 nM,"O=c1c(-c2cccc([N+](=O)[O-])c2)nc2cc(Cl)c(Cl)cc2n1Cc1ccccc1 [Compound 2d, 1-Benzyl-6,7-dichloro-3-(3-nitrophenyl)quinoxalin-2(1H)-one]",–
> 10000 nM,"O=c1c(-c2cccc([N+](=O)[O-])c2)nc2cc(F)c(F)cc2n1Cc1ccccc1 [Compound 2g, 1-Benzyl-6,7-difluoro-3-(3-nitrophenyl)quinoxalin-2(1H)-one]",–
> 10000 nM,"Cc1cccc2nc(-c3cccc([N+](=O)[O-])c3)c(=O)n(Cc3ccccc3)c12 [Compound 2h, 1-Benzyl-8-methyl-3-(3-nitrophenyl)quinoxalin-2(1H)-one]",–
> 10000 nM,"Cc1cc2nc(-c3cccc([N+](=O)[O-])c3)c(=O)n(Cc3ccccc3)c2cc1C [Compound 2i, 1-Benzyl-6,7-dimethyl-3-(3-nitrophenyl)quinoxalin-2(1H)-one]",–
> 10000 nM,"Cn1c(=O)c(-c2cccc([N+](=O)[O-])c2)nc2ccccc21 [Compound 3b, 1-Methyl-3-(3-nitrophenyl)quinoxalin-2(1H)-one]",–
